Here are results for 10 compounds from US20250145608A1, “KRAS DEGRADING COMPOUNDS COMPRISING ANNULATED 2-AMINO-3-CYANO THIOPHENES” (Boehringer Ingelheim Int'l GmbH Corp., priority 2021, published 2025).

What all share (type): cell-based
The subject of one experiment is NCI-H358 cells. Nature of the experiment: NCI-H358 CTG proliferation assay (120 h) (NSCLC, G12C). Particulars: Homo sapiens. The method, then:
NCI-H358 CTG Proliferation Assay (120 h) (NSCLC, G12C)
NCI-H358 cells (ATCC No. CRL-5807) are dispensed into white bottom opaque 96 well plates (Perkin Elmer cat no. 5680) at a density of 2000 cells per well in 100 μL RPMI-1640 ATCC-Formulation (Gibco #A10491)+10% FCS (fetal calf serum) (assay 1) or into black 384-well plates, flat and clear bottom (Greiner, PNr. 781091) at a density of 200 cells per well in 60 μl RPMI-1640 ATCC-Formulation (Gibco #A10491)+10% FCS (fetal calf serum) (assay 2). […] Compounds (10 mM stock in DMSO) are added at logarithmic dose series using the HP Digital Dispenser D300 (Tecan) (assay 1) or the ECHO acoustic liquid handler system (Beckman Coulter) (assay 2), normalizing for added DMSO and including DMSO controls. For the TO time point measurement, untreated cells are analyzed at the time of compound addition. Plates are incubated for 120 h, and cell viability is measured using CellTiter-Glo luminescent cell viability reagent (Promega product code G7570). Viability (stated as percent of control) is defined as relative luminescence units RLU of each well divided by the RLU of cells in DMSO controls. IC50 values are determined from viability measurements by non-linear regression using a four parameter model.

Another experiment has as its system GP5d cells. As to the kind of experiment: GP5d cell proliferation assay (colorectal cancer, G12D), 5 days. Particulars: Homo sapiens, 120 h. The method, then:
GP5d Cell Proliferation Assay (Colorectal Cancer, G12D)
(§1) GP5d cells (ECACC 95090715) are dispensed into white bottom opaque 96 well plates at a density of 5000 cells per well in 100 μL DMEM (BioWhittaker, Cat #BE12-605F) supplemented with 10% FCS. […] Compounds (10 mM stock in DMSO) are added at logarithmic dose series using the HP Digital Dispenser D300 (Tecan), normalizing for added DMSO. For the TO time point measurement, untreated cells are analysed at the time of compound addition. Plates are incubated for 5 days, and cell viability is measured using CellTiter-Glo luminescent cell viability reagent (Promega, Cat. No G7570). Viability (stated as percent of control) is defined as relative luminescence units RLU of each well divided by the RLU of cells in DMSO controls. IC50 values were computed from relative viability values using a four parametric logistic model.

The target of a further experiment is T1, KRAS(G12D) (Homo sapiens, UniProt P01116, G12D).
T1 construct: introduced immediately downstream of the initiating Methionine codon of the endogenous KRAS locus; host or cells: GP5d-HiBit-KRAS(G12D), a CRISPR knock-in at the endogenous locus
Nature of the experiment: HiBit degradation assay in GP5d-HiBit-KRAS(G12D) cells (18 h; DC50, Dmax). How it is done:
A HiBit protein detection tag (amino acid sequence […], Seq ID No 1) was introduced immediately downstream of the initiating Methionine codon of the endogenous KRAS locus (Ensembl gene ID ENSG00000133703.7) of GP5d cells (ECACC Cat. No. 95090715) by CRISPR-based genome engineering using a KRAS(G12D) mutant donor construct encoding the HiBit tag. […] Correct modification of the KRAS locus was assessed by PCR-based genotyping and Sanger sequencing of the isolated PCR products. The resulting cell line is referred to as GP5d-HiBit-KRAS(G12D).
To assess PROTAC-mediated degradation of KRAS(G12D), GP5d-HiBit-KRAS(G12D) cells were seeded at 25000 cells per well in 100 μL Dulbecco's Modified Eagle medium (Sigma cat. no. D6429) supplemented with 10% fetal calf serum into white bottom opaque 96 well plates (Perkin Elmer cat no. 5680). Plates were incubated at 37° C., 5% CO2 in a humidified incubator over night to allow the cells to adhere. […] Plates were further incubated at 37° C. for 18 hours. Following incubation, 100 μL per well Promega Nano-Glo HiBit lytic detection reagent mix (Promega Nano-Glo HiBit Lytic Detection System #N3050), prepared according to the manufacturer's instructions in the kit, were added. To allow for adequate cell lysis, plates were incubated on an orbital shaker for 15 min and further incubated 30 min at room temperature. Upon completion of cell lysis, luminescence was measured using an Envision plate reader using the Ultrasensitive Luminescence Protocol for 96 well plates. Luminescence levels were normalized by the values obtained with DMSO-treated samples and plotted as percent of DMSO control. DC50 values were computed using a four parametric logistic model. Dmax values represent the maximal extent of degradation observed and is stated as percent of control (% Ctrl.) treatments. DC50 and Dmax are reported in Table 64 for representative compounds of the invention.
Background: The HiBiT peptide binds its large partner to form an active luciferase.

In another experiment the test system is SW620 cells. As to the kind of experiment: SW620 cell proliferation assay (colorectal cancer, G12V), 5 days. The following applies: Homo sapiens, SW-620, 120 h. The method, then:
SW620 Cell Proliferation Assay (Colorectal Cancer, G12V)
as §1, with “SW620” for “GP5d”, “(ATCC CCL-227)” for “(ECACC 95090715)”, “plates (Perkin Elmer cat no. 5680)” for “plates”, “2000” for “5000”

The mark [1] stands for this setting: assay 1, read-out: H358 (assay 1) IC50.
The mark [2] stands for this setting: assay 2, read-out: H358 (assay 2) IC50.

Where two headings read alike, the source gives them in different places.

T1 sequence (P01116 1-188 isoform P01116-2 G12D): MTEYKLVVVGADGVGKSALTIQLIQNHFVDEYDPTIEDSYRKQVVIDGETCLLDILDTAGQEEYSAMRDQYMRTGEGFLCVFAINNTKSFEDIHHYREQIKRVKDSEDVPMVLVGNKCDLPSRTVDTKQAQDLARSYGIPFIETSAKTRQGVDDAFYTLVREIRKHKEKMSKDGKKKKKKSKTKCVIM

`Cc1ncsc1-c1ccc(CNC(=O)[C@@H]2C[C@@H](O)CN2C(=O)C(c2cc(OCCCCCCN3CCCN(c4nccc(-c5noc([C@@]6(C)CCCc7sc(N)c(C#N)c76)n5)n4)[C@@H](C)C3)no2)C(C)C)cc1` (stereo partly shown) [I-8]: the IC50 was 725 nM with NCI-H358 cells (setting [1]), 136 nM in the experiment with NCI-H358 cells (setting [2]), 90.2 nM in the experiment on GP5d cells and 50.4 nM with SW620 cells. In addition, the DC50 at KRAS(G12D) came to 11.4 nM. Besides, on KRAS(G12D), the “Dmax 18 h” value came out at 86 % Ctrl.

For the compound `Cc1cc(CNC(=O)[C@@H]2C[C@@H](O)CN2C(=O)C(c2cc(OCCCCN3CCCN(c4nccc(-c5noc([C@@]6(C)CCCc7sc(N)c(C#N)c76)n5)n4)[C@@H](C)C3)no2)C(C)C)ccc1-c1scnc1C` (stereo partly shown) [I-10], the IC50 came to 265 nM in the experiment on NCI-H358 cells (setting [1]), 203 nM with NCI-H358 cells (setting [2]), 39.3 nM in the experiment on GP5d cells and 115 nM in the experiment with SW620 cells. This compound also came in with a half-maximal degradation concentration (DC50) on KRAS(G12D) of 15.4 nM. Moreover, on KRAS(G12D), the “Dmax 18 h” value came to 91 % Ctrl.

As to `Cc1ncsc1-c1ccc(CNC(=O)[C@@H]2C[C@@H](O)CN2C(=O)C(c2cc(OCCCCN3CCN(c4nccc(-c5noc([C@@]6(C)CCCc7sc(N)c(C#N)c76)n5)n4)[C@@H](C)C3)no2)C(C)C)cc1` (stereo partly shown) [I-11], the half-inhibitory concentration (IC50) with NCI-H358 cells (setting [1]) is 712 nM; with NCI-H358 cells (setting [2]) it was 349 nM; with GP5d cells, not below 9000 nM; with SW620 cells it was 9000 nM. The compound also had a DC50 at KRAS(G12D) of 35.1 nM. Further, on KRAS(G12D), the “Dmax 18 h” value is on record as 57 % Ctrl.

As to `Cc1ncsc1-c1ccc(CNC(=O)[C@@H]2C[C@@H](O)CN2C(=O)C(c2cc(OCCCCN3CCCN(c4nccc(-c5cc([C@@]6(C)CCCc7sc(N)c(C#N)c76)sn5)n4)[C@@H](C)C3)no2)C(C)C)cc1` (stereo partly shown) [I-12], the half-maximal inhibitory concentration (IC50) with NCI-H358 cells (setting [1]) came out at 407 nM; in the experiment with NCI-H358 cells (setting [2]), 118 nM; with GP5d cells, 106 nM; in the experiment with SW620 cells it was 109 nM. At KRAS(G12D), this compound returned a DC50 of 42.1 nM. Moreover, at KRAS(G12D), the “Dmax 18 h” value came out at 86 % Ctrl.

Consider `Cc1cc(CNC(=O)[C@@H]2C[C@@H](O)CN2C(=O)C(c2cc(OCCCCN3CCCN(c4nccc(-c5noc([C@@]6(C)CCCc7sc(N)c(C#N)c76)n5)n4)[C@@H](C)C3)no2)C(C)C)c(F)cc1-c1scnc1C` (stereo partly shown) [I-13], for which the IC50 in the experiment with NCI-H358 cells (setting [1]) worked out at 468 nM; with NCI-H358 cells (setting [2]) it was 336 nM; in the experiment on GP5d cells, 131 nM; in the experiment with SW620 cells, 206 nM. The DC50 on KRAS(G12D) was 45.2 nM. In addition, the “Dmax 18 h” value at KRAS(G12D) turned out to be 87 % Ctrl.

Turning to `CC(C)C(C(=O)N1C[C@H](O)C[C@H]1C(=O)NCc1ccc(-n2ccnc2)cc1)c1cc(OCCCCN2CCCN(c3nccc(-c4noc([C@@]5(C)CCCc6sc(N)c(C#N)c65)n4)n3)[C@@H](C)C2)no1` (stereo partly shown) [I-19], the values for the concentration for half-maximal inhibition (IC50) with NCI-H358 cells (setting [1]), in the experiment on GP5d cells and in the experiment on SW620 cells were 346 nM, 23.5 nM and 29 nM, respectively. The same compound showed a DC50 on KRAS(G12D) of 6.7 nM. Also, the “Dmax 18 h” value on KRAS(G12D) worked out at 93 % Ctrl.

Take `CC(C)C(C(=O)N1C[C@H](O)C[C@H]1C(=O)NCc1ccc(Cl)cc1)c1cc(OCCCCN2CCCN(c3nccc(-c4noc([C@@]5(C)CCCc6sc(N)c(C#N)c65)n4)n3)[C@@H](C)C2)no1` (stereo partly shown) [I-20]: the IC50 with NCI-H358 cells (setting [1]) turned out to be 439 nM; in the experiment with NCI-H358 cells (setting [2]), 377 nM; with GP5d cells, 92.4 nM; in the experiment with SW620 cells, 83.9 nM. Further, the half-maximal degradation concentration (DC50) at KRAS(G12D) is 8.6 nM. For the same compound, the “Dmax 18 h” value on KRAS(G12D) is on record as 89 % Ctrl.

Take `CC(C)c1ccc(CNC(=O)[C@@H]2C[C@@H](O)CN2C(=O)C(c2cc(OCCCCN3CCCN(c4nccc(-c5noc([C@@]6(C)CCCc7sc(N)c(C#N)c76)n5)n4)[C@@H](C)C3)no2)C(C)C)cc1` (stereo partly shown) [I-23]: the concentration for half-maximal inhibition (IC50) in the experiment with NCI-H358 cells (setting [1]) came out at 1150 nM; in the experiment on NCI-H358 cells (setting [2]), 527 nM; in the experiment on GP5d cells, 857 nM; in the experiment with SW620 cells it was 267 nM. On KRAS(G12D), this compound had a DC50 of 76.7 nM. Also, the “Dmax 18 h” value at KRAS(G12D) worked out at 82 % Ctrl.

For `Cc1ncsc1-c1ccc(CNC(=O)[C@@H]2C[C@@H](O)CN2C(=O)C(C(C)C)n2cc(CCCCCN3CCCN(c4nccc(-c5noc([C@@]6(C)CCCc7sc(N)c(C#N)c76)n5)n4)[C@@H](C)C3)nn2)cc1` (stereo partly shown) [I-34], the IC50 with NCI-H358 cells (setting [1]) came to 160 nM; in the experiment on NCI-H358 cells (setting [2]), 43.8 nM; in the experiment on GP5d cells, 21.7 nM; with SW620 cells it was 51.3 nM. The compound also had a 50% degradation concentration (DC50) on KRAS(G12D) of 10.6 nM. The “Dmax 18 h” value on KRAS(G12D) is given as 91 % Ctrl.

`Cc1ncsc1-c1ccc(CNC(=O)[C@@H]2C[C@@H](O)CN2C(=O)[C@@H](NC(=O)COCCCN2CCCN(c3nccc(-c4noc([C@@]5(C)CCCc6sc(N)c(C#N)c65)n4)n3)[C@@H](C)C2)C(C)(C)C)cc1` [I-48]: the 50% inhibitory concentration (IC50) in the experiment with NCI-H358 cells (setting [1]) amounted to 3550 nM; with GP5d cells, 2630 nM; in the experiment with SW620 cells, 803 nM. At KRAS(G12D), this compound registered a DC50 of 523 nM. Besides, the “Dmax 18 h” value at KRAS(G12D) was determined as 85 % Ctrl.

A word on the IC50: it is the midpoint of a concentration-inhibition curve. As a reminder, the DC50 is the midpoint of the concentration-degradation curve.
